From US10226477B2, “Composition for preventing, improving or treating postmenopausal osteoporosis comprising scopolin” (DONG WOO DANG CO., LTD, priority 2016, dated 2019)
Entries after “also recorded” stand apart in the source; their conditions may differ.

Tests used:
[1] = tested on: ddY female ovariectomized (OVX)-mouse; assay: Bone mineral density (PIXImus) and femoral micro-CT in ovariectomized menopausal mouse model; format: in vivo; details: oral, 12 weeks, scopolin 20 and 40 mg/kg/day, SrCl2 20 mg/kg/day; for decrease in the bone mineral density caused by the menopause: p<0.05 vs. OVX
Method: (§1) To evaluate in vivo efficacy of scopolin, a 10-week-old ddY female ovariectomized (OVX)-mouse was used a menopausal animal model (ovariectomy was performed on the 8-week-old mouse, and the mouse was additionally raised for 2 weeks). Regarding control groups, a Shame mouse that was subjected to laparotomy, but was not subjected to ovariectomy, (normal control group), and an OVX mouse to which physiological saline was added (negative control group) were used, and in addition, a strontium chloride (SrCl2) mouse in which 20 mg/kg/day of SrCl2, which is a compound having an effect in enhancing bone mineral density, was administered by oral injection to an OVX mouse was used as a positive control group in the test for bone mineral density improvement efficacy. Here, an experimental group was prepared by administering scopolin at a dose of 20 mg/kg/day and 40 mg/kg/day by oral injection. The 10-week-old sham-operated mouse and the ddY OVX-mouse were purchased at Central Lab. Animal Inc., and then, were moved to a clean animal breeding room after spending 1 week of purification period in the laboratory animal quarantine room. These mice were individually weighed to be classified into experimental groups without a statistically significant difference in weight. Scopolin used in the experiment was dissolved in 1% DMSO aqueous solution to be prepared as a test solution. In order to bring these mice in the laboratory animal center, a radiation irradiation company, SOYAGREENTEC Inc., was commissioned for sterilization operations using gamma irradiation.
At the beginning of the animal experiment, a PIXImus bone densitometer was used to measure initial bone mineral density (BMD) of the mice. The mice were anesthetized by injecting 50 μl of a mixed anesthetic of zoletil and rompun (a mixture of zoletil and rompun at a ratio of 1:2 was diluted with physiological saline at a ratio of 2:3), and then, were fixed to a bone mineral density measuring frame to measure bone mineral density. After 6 weeks and 12 weeks of the injection of scopolin to the mice, the bone mineral density of the mice was measured by using the PIXImus bone densitometer. After the completion of the experiment during 12 weeks, blood sampling and removal of femoral bone were performed, and micro-CT was taken thereon. In the micro-CT images, bone volume ratios (BV ratios, %), trabecular thickness (Tb.Th), trabecular number (Tb.N), and trabecular spacing (Tb.Sp) were numeralized and analyzed.

[2] = tested on: ddY female ovariectomized (OVX)-mouse; assay: Serum OPG and RANKL levels by ELISA in ovariectomized menopausal mouse model; format: in vivo; details: oral, 12 weeks, scopolin 20 and 40 mg/kg/day, SrCl2 20 mg/kg/day; for decrease in the serum level of OPG (bone formation marker) / increase in the serum level of RANKL (bone resorption marker): p<0.05 vs. OVX
Method: as §1
Next, the changes of blood metabolism markers in the blood were examined. After 12 weeks of the experiment performed on the postmenopausal mouse model, the blood sampling was performed thereon, and serum samples were collected therefrom. The serum protein levels of osteoprotegerin (OPG), which is a bone formation marker, and receptor activator of nuclear factor-kappa B ligand (RANKL), which is a bone resorption marker, were analyzed by ELISA. […] However, in the experimental groups to which scopolin was administered at a dose of 20 mg/kg/day and 40 mg/kg/day for 12 weeks, it was confirmed that the decrease in the level of OPG, which is the bone formation marker in the blood, the increase in the level of RANKL, which is the bone resorption marker, and the decrease in the OPG/RANKL ratios were inhibited (see FIGS. 9A, 9B, and 9C). Such results were similar with those obtained by the SrCl2 mouse which is the positive control group. In addition, in the statistical analysis, the significance of the efficacy of scopolin was also confirmed (*: p<0.05 vs. OVX negative control group).

MC3T3-E1 cells [3] = assay: Cytotoxicity of scopolin by cell proliferation analysis (EZ-Cytox, water-soluble tetrazolium salt); format: cell-based; details: 1 μg/ml, 5 μg/ml and 10 μg/ml, cultured 2 days, vs. physiological saline control
Method: Cytotoxicity of scopolin was evaluated by cell proliferation analysis using an EZ-Cytox Enhanced Cell Viability Assay Kit using a water-soluble tetrazolium salt. In detail, MC3T3-E1 cells (3×10^3 cells/well), which are osteoblasts, were cultured in an alpha-minimum essential medium (α-MEM) supplemented with 10% bovine fetus serum, 1 mM sodium pyruvate, 100 unit/L penicillin, and 100 mg/L streptomycin at a temperature of 37° C. under conditions provided with 5% CO2, and then, the cells were treated with scopolin at three different concentrations (1 μg/ml, 5 μg/ml, and 10 μg/ml) and cultured for 2 days. Next, the tetrazolium salt was applied to each of the cultured cells and a sample, followed by being cultured at a temperature of 37° C. for 2 hours, and then, absorbance thereof was measured at a wavelength of 450 nm.

MC3T3-E1 cells [4] = assay: Osteoblast differentiation: alkaline phosphatase (ALP) activity; format: cell-based
Method: The efficacy of scopolin on the differentiation of osteoblasts was evaluated by using the MC3T3-E1 cells. Ascorbic acid (50 μg/ml) and β-glycerophosphate (10 mM), which are osteoblast inducers, were added to the MC3T3-E1 cells, to thereby induce the differentiation for 3 days. Then, the resulting cells were treated with scopolin. Scopolin was dissolved in 1% dimethyl sulfoxide (DMSO) aqueous solution, and then, was applied to the MC3T3-E1 cells at concentrations of 1 μg/ml (Sco1), 5 μg/ml (Sco5), and 10 μg/ml (Sco10). The resulting cells were cultured for additional 48 hours. As a control group, cells were cultured in the same amount of 1% DMSO aqueous solution in which scopolin was not treated. To determine the efficacy of scopolin on the differentiation of osteoblasts, the activity of alkaline phosphatase (ALP) was measured. In detail, the cells that were washed using physiological saline and dissolved using a lytic agent was treated with p-nitrophenyl phosphate, which is a substrate of ALP, and then, cultured at a temperature of 37° C. for 1 hour. Subsequently, 0.5N NaOH, which is a reaction terminating solution, was added the cultured cells, and then, absorbance thereof was measured at a wavelength of 405 nm.

MC3T3-E1 cells [5] = assay: Osteoblast differentiation: ALP staining; format: cell-based; details: 5 μg/ml
MC3T3-E1 cells [6] = assay: Mineralization of osteoblasts by Alizarin Red S staining; format: cell-based; details: 5 μg/ml
Method: The mineralization of osteoblasts was analyzed by an Alizarlin red S staining method after experimental groups and a control group were each treated with 5 μg/ml of scopolin and cultured. […] That is, it was confirmed that scopolin was effective in stimulating the differentiation of osteoblasts.

Row | Structure (SMILES) | increase in trabecular spacing (Tb.Sp) [1] | low density of the bone structure (micro-CT images) [1] | reduction in BV ratios (bone volume ratio) [1] | reduction in trabecular number (Tb.N) [1] | reduction in trabecular thickness (Tb.Th) [1] | decrease in the bone mineral density caused by the menopause [1] | decrease in the OPG/RANKL ratios [2] | decrease in the serum level of OPG (bone formation marker) [2] | increase in the serum level of RANKL (bone resorption marker) [2] | effect on the proliferation of the MC3T3-E1 cells (cytotoxicity) (MC3T3-E1 cells [3]) | differentiation of osteoblasts (ALP activity) (MC3T3-E1 cells [4]; 5 μg/ml or 10 μg/ml, 48 hours after 3 days induction, p<0.05 vs. negative control) | stimulating osteoblast differentiation (overall conclusion) (MC3T3-E1 cells [4]; MC3T3-E1 cells, 1-10 μg/ml) | ALP staining (MC3T3-E1 cells [5]) | mineralization (Alizarin Red S staining) (MC3T3-E1 cells [6])
1 | [Cl-].[Cl-].[Sr+2] [SrCl2, strontium chloride, reference compound] | similar | similar | similar | similar | similar | similar | similar | similar | similar | – | – | – | – | –
2 | COc1cc2ccc(=O)oc2cc1O[C@@H]1O[C@H](CO)[C@@H](O)[C@H](O)[C@H]1O [scopolin] | inhibited | significantly inhibits; also recorded: inhibited | inhibited | inhibited | inhibited | significantly inhibits; also recorded: inhibited | inhibited | significantly inhibits; also recorded: inhibited | significantly inhibits; also recorded: inhibited | not toxic; also recorded: no adverse effect | statistically significantly increased | significant effect; also recorded: effective | increased | increased
